From patent US20130052268A1, “COMPOSITIONS AND METHODS FOR TREATMENT OF PARKINSON'S DISEASE” (THE MCLEAN HOSPITAL CORPORATION, priority 2010, published 2013)

How the values were obtained:
Assay type in all cases: cell-based, mouse
[1] = system: SHH signaling; assay: Acute treatment of ES-derived NP cells with SHH or cyclopamine, qPCR; conditions: 6 hours
Procedure: For all other samples, total RNA was prepared using TriReagent (Sigma, St. Louis, Mo.) followed by further purification using RNeasy mini kit (Qiagen, Valencia, Calif.). For RT-PCR analysis, 2 ? g of RNA were transcribed into cDNA with the SuperScript™ II RT (Invitrogen, Carlsbad, Calif.) and oligo (dT) primers. For quantitative analysis of the expression level of mRNAs, real-time PCR analyses using SYBR green I were performed using a DNA engine Opticon™ (MJ Research, Waltham, Mass.). To reduce non-specific signals, oligonucleotides amplifying small amplicons were designed using the MacVector software (Oxford Molecular Ltd.: primers sequences are available upon request). Amplifications were performed in 25 μl containing 0.5 μM of each primer,
0.5×SYBR Green I (Molecular Probes, Oreg.), and 2 μl of 5 fold diluted cDNA. Fifty PCR cycles were performed with a temperature profile consisting of 95° C. for 30 sec, 55° C. for 30 sec, 72° C. for 30 sec, and 79° C. for 5 sec. The dissociation curve of each PCR product was determined to ensure that the observed fluorescent signals were only from specific PCR products. After each PCR cycle, the fluorescent signals were detected at 79° C. to melt primer dimers (Tms of all primer dimers used in this study were <76° C.). A standard curve was constructed using plasmid DNAs containing the GAPDH gene (from 10^2 to 10^8 molecules). The fluorescent signals from specific PCR products were normalized against that of the β-actin gene, and then relative values were calculated by setting the normalized value of control as 1 (or 100 in some cases). All reactions were repeated using more than three independent samples.
(§1) It was previously shown that SHH treatment could ventralize chick intermediate midbrain explants, accompanied by induction of Lmx1a and other ventral midbrain phenotype (Andersson et al., 2006b). […] ES-derived NP cells were treated with 500 ng/ml SHH or 1 μM cyclopamine for 6 hours and analyzed by qPCR.

[2] = system: SHH signaling; assay: Wnt1 induction of Lmx1a in the presence of the SHH signaling inhibitor cyclopamine, qPCR at NP stage; conditions: Wnt1-retrovirus transduced NP cells, 1 mM cyclopamine for 3 days
Procedure: FIG. 10A-B show interaction between SHH and other factors. […] J1 ES-derived NP cells were transduced with empty- or Wnt1-retrovirus and cultured in the absence or presence of […] cyclopamine for 3 days, and analyzed by qPCR at NP stage. […] NP stage cells were treated with 500 ng/ml of SHH or […] Cyclopamine for 6 hours and analyzed by qPCR.
as §1

[3] = system: ES cell-derived NP cells; assay: siRNA knock down of Lmx1a and Lmx1b in ES cell-derived NP and ND stage cells
Procedure: For siRNA transfection, NP stage cells were treated with 50 ng/ml FGF8 and 100 ng/ml SHH for 4 days to induce/proliferate mDA NPs, followed by transfection with siRNA using the Nucleofector (Amaxa, Walkersville, Md.) mouse stem cell kit with the program A-033 according to the manufacturer's instruction. Per transfection, 5×10^6 NP cells were treated with 480 pmol of siRNA, diluted in 10 ml of N3bFGF media (or N3 media for ND stage transfection) and plated in PLO/FN-coated multiwell plate, resulting in a final siRNA concentration of 48 nM. For ND stage transfection, cells were further differentiated in N3 media for 2 days before transfection. Multiple Stealth siRNAs were purchased from Invitrogen (Carlsbad, Calif.), screened for gene silencing efficiency by cotransfection with Lmx1a or Lmx1b-expressing plasmids and only siRNAs showing efficient gene silencing (>95%) was used for the experiments. The sequences of the siRNAs are as follows: the Lmx1a sense strand […] (SEQ ID NO: 1); the Lmx1a antisense strand […] (SEQ ID NO: 2); the Lmx1b sense strand […] (SEQ ID NO: 3); the Lmx1b antisense strand […] (SEQ ID NO: 4). Thirty hours after transfection, cells were fixed for immunocytochemistry or harvested for RNA preparation.
To further study the redundant function between Lmx1a and Lmx1b, experiments were carried out to knock down these genes using gene-specific siRNA approach. ES cell-derived NP cells were treated with SHH and FGF8 for 4 days to induce/proliferate mDA NPs, and then transfected with control siRNA, Lmx1a siRNA, Lmx1b siRNA or both Lmx1a/1b siRNAs using Nucleofector (Amaxa) and analyzed after 30 hours. […] This insignificant effect is in contrast with the robust induction effect observed in overexpression experiment (FIG. 5A). This can be explained by incomplete knockdown by siRNA and/or nonphysiological overexpression effect caused by retroviral transduction. […] Since Pitx3^+ cells were not yet detectable at this NP stage, the gene knockdown experiment was repeated at ND stage cells.

[4] = NP cells, 500 ng/ml SHH or 1 μM cyclopamine
[5] = ND stage, 30 hrs after transfection
[6] = NP stage, 30 hours after transfection
[7] = NP stage, 30 hours after transfection, 48 nM siRNA

Compound	Lmx1a mRNA levels [1, 4]	Nurr1 mRNA levels [1, 4]	TH mRNA levels [1, 4]	mRNA level of Gli1 ([1]; NP stage cells, 500 ng/ml SHH or μM Cyclopamine)	induction of Lmx1a gene expression by Wnt1 [2]	mRNA level of Lmx1a [3, 5]	Nurr1 gene expression [3, 6]	Wnt1 gene expression [3, 6]	mRNA level of Lmx1a [3, 7]	mRNA level of Lmx1b [3, 5]	mRNA level of Lmx1b [3, 7]
CC1=C2C[C@H]3[C@@H](CC=C4C[C@@H](O)CC[C@@]43C)[C@@H]2CC[C@]12O[C@@H]1C[C@H](C)CN[C@H]1[C@H]2C [cyclopamine]	no significant changes	no significant changes	no significant changes	reduced	not affected	–	–	–	–	–	–
Lmx1a siRNA: Stealth siRNA, sense GAGGAGAGCAUUCAAGGCCUCGUUU (SEQ ID NO: 1), antisense SEQ ID NO: 2 (antisense AAACGAGGCCUUGAAUGCUCUCCUC; Stealth modification, further chemistry not given here)	–	–	–	–	–	significantly reduced	did not have significant effect	did not have significant effect	significantly reduced	–	–
Lmx1b siRNA: Stealth siRNA, sense GGAACGACUCCAUCUUCCACGAUAU (SEQ ID NO: 3), antisense SEQ ID NO: 4 (antisense AUAUCGUGGAAGAUGGAGUCGUUCC; Stealth modification, further chemistry not given here)	–	–	–	–	–	–	did not have significant effect	did not have significant effect	–	significantly reduced	significantly reduced
